{
  "source": "paper PMC9519446",
  "about": "“Discovery of an Orally Active Benzoxaborole Prodrug Effective in the Treatment of Chagas Disease in Non-human Primates” (Nature microbiology, 2022)",
  "key": {"[1]": {"test": "NHP health screening: hematology (CBC)", "format": "in vivo, rhesus macaques (Macaca mulatta)", "settings": "treated macaques, individual animals"}, "[2]": {"test": "NHP clinical observation, physical exams and reproductive follow-up", "description": "Under light-anesthesia/sedation, peripheral blood samples were collected from each animal prior to treatment and at 7 time points following. Blood analysis (CBC and serum chemistry assays) and physical exams to evaluate the health of the study animals were performed on each animal prior to the beginning of the study and also at three time points during the treatment protocol (see Supplementary data)."}},
  "note": "Where “and” joins values, the source holds several entries; their conditions need not be identical. Equal values may be shown once.",
  "data": [
    {"molecule": "Cc1c(C(=O)N[C@H](C(=O)OCC2CCOCC2)C(C)C)ccc2c1B(O)OC2", "note": "[AN15368]", "values": [
      {"measurement": "Lymp", "setting": "[1]; mid-dosing bleed", "result": "3.35 10^3/µL and 4.79 10^3/µL and 3.28 10^3/µL and 5.22 10^3/µL and 2.3 10^3/µL and 2.17 10^3/µL and 3.7 10^3/µL and 4.02 10^3/µL and 5.12 10^3/µL and 2.39 10^3/µL and 2.58 10^3/µL and 3.15 10^3/µL and 3.84 10^3/µL and 2.63 10^3/µL and 2.99 10^3/µL and 4.63 10^3/µL and 1.5 10^3/µL and 2.51 10^3/µL and 3.89 10^3/µL"},
      {"measurement": "Mch", "setting": "[1]; mid-dosing bleed", "result": "23.8 Pgs and 22.9 Pgs and 24.1 Pgs and 24.7 Pgs and 24 Pgs and 22.6 Pgs and 24.4 Pgs and 23.9 Pgs and 22.5 Pgs and 23.1 Pgs and 23.3 Pgs and 23.7 Pgs and 22.8 Pgs and 23 Pgs and 22.7 Pgs and 23.6 Pgs"},
      {"measurement": "Mchc", "setting": "[1]; mid-dosing bleed", "result": "31.8 G/Dl and 33.3 G/Dl and 31.2 G/Dl and 31.7 G/Dl and 32.2 G/Dl and 32 G/Dl and 32.8 G/Dl and 32.5 G/Dl and 30.8 G/Dl and 32.1 G/Dl and 31.6 G/Dl and 31.9 G/Dl and 33.2 G/Dl and 32.3 G/Dl"},
      {"measurement": "Mcv", "setting": "[1]; mid-dosing bleed", "result": "74.9 fL and 68.9 fL and 77.2 fL and 78 fL and 74.5 fL and 70.8 fL and 74.6 fL and 73.8 fL and 72.9 fL and 76.6 fL and 72.2 fL and 76.4 fL and 74.7 fL and 74.4 fL and 71.4 fL and 72.1 fL and 71.2 fL"},
      {"measurement": "Mono", "setting": "[1]; mid-dosing bleed", "result": "0.25 10^3/µL and 0.22 10^3/µL and 0.19 10^3/µL and 0.43 10^3/µL and 0.26 10^3/µL and 0.21 10^3/µL and 0.16 10^3/µL and 0.58 10^3/µL and 0.3 10^3/µL and 0.38 10^3/µL and 0.13 10^3/µL and 0.32 10^3/µL and 0.28 10^3/µL and 0.08 10^3/µL and 0.17 10^3/µL and 0.5 10^3/µL"},
      {"measurement": "Mpv", "setting": "[1]; mid-dosing bleed", "result": "6.5 fL and 7.2 fL and 7.4 fL and 9.2 fL and 9.1 fL and 6.8 fL and 6.6 fL and 6.7 fL and 7.7 fL and 8.1 fL and 7.9 fL and 7.1 fL and 7.5 fL and 8.8 fL and 8.5 fL"},
      {"measurement": "Neut", "setting": "[1]; mid-dosing bleed", "result": "1.09 10^3/µL and 1.04 10^3/µL and 2.08 10^3/µL and 1.9 10^3/µL and 3.38 10^3/µL and 1.51 10^3/µL and 1.78 10^3/µL and 2.28 10^3/µL and 1.12 10^3/µL and 2.03 10^3/µL and 1.69 10^3/µL and 3.43 10^3/µL and 3.82 10^3/µL and 1.6 10^3/µL and 3.07 10^3/µL and 1.17 10^3/µL and 1.61 10^3/µL and 1.53 10^3/µL and 0.96 10^3/µL"},
      {"measurement": "Plt", "setting": "[1]; mid-dosing bleed", "result": "354 10^3/µL and 311 10^3/µL and 210 10^3/µL and 266 10^3/µL and 220 10^3/µL and 317 10^3/µL and 438 10^3/µL and 380 10^3/µL and 279 10^3/µL and 251 10^3/µL and 373 10^3/µL and 367 10^3/µL and 434 10^3/µL and 280 10^3/µL and 260 10^3/µL and 432 10^3/µL and 291 10^3/µL and 288 10^3/µL and 306 10^3/µL"},
      {"measurement": "Rbc", "setting": "[1]; mid-dosing bleed", "result": "5.5 10^6/µL and 6.2 10^6/µL and 5.27 10^6/µL and 5.91 10^6/µL and 5.33 10^6/µL and 6.13 10^6/µL and 5.36 10^6/µL and 5.46 10^6/µL and 5.69 10^6/µL and 5.47 10^6/µL and 5.82 10^6/µL and 5.18 10^6/µL and 5.8 10^6/µL and 5.32 10^6/µL and 6.12 10^6/µL and 5.24 10^6/µL"},
      {"measurement": "Rdw", "setting": "[1]; mid-dosing bleed", "result": "12.8% and 11.9% and 12.5% and 12.1% and 12.7% and 12% and 13.5% and 12.9% and 12.4% and 11.3% and 12.3%"},
      {"measurement": "Wbc", "setting": "[1]; mid-dosing bleed", "result": "4.78 10^3/µL and 6.15 10^3/µL and 5.63 10^3/µL and 7.65 10^3/µL and 6 10^3/µL and 3.99 10^3/µL and 5.7 10^3/µL and 7.05 10^3/µL and 6.59 10^3/µL and 4.73 10^3/µL and 4.52 10^3/µL and 7.07 10^3/µL and 8.23 10^3/µL and 4.45 10^3/µL and 6.3 10^3/µL and 3.22 10^3/µL and 4.27 10^3/µL and 5.62 10^3/µL"},
      {"measurement": "Baso", "setting": "[1]; post-dosing bleed", "result": "0.01 10^3/µL and 0.02 10^3/µL and 0 10^3/µL and 0.04 10^3/µL and 0.03 10^3/µL"},
      {"measurement": "Eos", "setting": "[1]; post-dosing bleed", "result": "0.05 10^3/µL and 0.15 10^3/µL and 0.06 10^3/µL and 0.02 10^3/µL and 0.09 10^3/µL and 0.04 10^3/µL and 0.13 10^3/µL and 0.03 10^3/µL and 0.23 10^3/µL and 0.2 10^3/µL and 0.18 10^3/µL"},
      {"measurement": "Hct", "setting": "[1]; post-dosing bleed", "result": "38.2% and 41.9% and 37.7% and 43% and 39.5% and 42.7% and 41% and 42.1% and 39.9% and 41.8% and 40.8% and 39.1% and 40.4% and 43.7% and 37.1% and 39.6% and 41.1%"},
      {"measurement": "Hgb", "setting": "[1]; post-dosing bleed", "result": "12.2 G/Dl and 14.1 G/Dl and 12 G/Dl and 13.9 G/Dl and 12.7 G/Dl and 13.1 G/Dl and 13.5 G/Dl and 12.6 G/Dl and 13.4 G/Dl and 12.1 G/Dl and 14 G/Dl and 13 G/Dl and 11.7 G/Dl and 12.9 G/Dl"},
      {"measurement": "Lymp", "setting": "[1]; post-dosing bleed", "result": "2.22 10^3/µL and 5.87 10^3/µL and 2.42 10^3/µL and 3.66 10^3/µL and 1.59 10^3/µL and 1.61 10^3/µL and 1.2 10^3/µL and 2.96 10^3/µL and 2.61 10^3/µL and 1.64 10^3/µL and 1.73 10^3/µL and 2.56 10^3/µL and 2.26 10^3/µL and 3.27 10^3/µL and 1.82 10^3/µL and 3.4 10^3/µL and 2.49 10^3/µL and 4.82 10^3/µL"},
      {"measurement": "Mch", "setting": "[1]; post-dosing bleed", "result": "24 Pgs and 23.3 Pgs and 24.2 Pgs and 24.8 Pgs and 24.1 Pgs and 22.8 Pgs and 23.6 Pgs and 22.7 Pgs and 25.1 Pgs and 23.5 Pgs and 24.3 Pgs and 23 Pgs and 23.2 Pgs and 23.4 Pgs"},
      {"measurement": "Mchc", "setting": "[1]; post-dosing bleed", "result": "31.9 G/Dl and 33.7 G/Dl and 31.8 G/Dl and 32.3 G/Dl and 32.2 G/Dl and 32.6 G/Dl and 32 G/Dl and 32.1 G/Dl and 31.6 G/Dl and 33.3 G/Dl and 32.8 G/Dl and 30.9 G/Dl and 32.4 G/Dl and 31.5 G/Dl and 31.4 G/Dl"},
      {"measurement": "Mcv", "setting": "[1]; post-dosing bleed", "result": "74.9 fL and 69.4 fL and 76 fL and 76.5 fL and 75.1 fL and 70 fL and 75.4 fL and 73.3 fL and 71.9 fL and 75.6 fL and 71 fL and 76.1 fL and 75 fL and 71.5 fL and 72 fL and 73.8 fL and 71.1 fL"},
      {"measurement": "Mono", "setting": "[1]; post-dosing bleed", "result": "0.18 10^3/µL and 0.32 10^3/µL and 0.21 10^3/µL and 0.33 10^3/µL and 0.22 10^3/µL and 0.38 10^3/µL and 0.54 10^3/µL and 0.11 10^3/µL and 0.26 10^3/µL and 0.1 10^3/µL and 0.28 10^3/µL and 0.15 10^3/µL and 0.34 10^3/µL"},
      {"measurement": "Mpv", "setting": "[1]; post-dosing bleed", "result": "6.6 fL and 7.5 fL and 7.4 fL and 10.2 fL and 8.7 fL and 6.9 fL and 7.1 fL and 7 fL and 6.7 fL and 8.3 fL and 8 fL and 6.4 fL and 8.4 fL and 7.2 fL and 6.8 fL"},
      {"measurement": "Neut", "setting": "[1]; post-dosing bleed", "result": "3.01 10^3/µL and 0.97 10^3/µL and 0.98 10^3/µL and 1.76 10^3/µL and 2.92 10^3/µL and 2.28 10^3/µL and 2.06 10^3/µL and 3.85 10^3/µL and 1.41 10^3/µL and 3.58 10^3/µL and 1.8 10^3/µL and 3.13 10^3/µL and 5.36 10^3/µL and 1.54 10^3/µL and 2.18 10^3/µL and 3.21 10^3/µL and 2.83 10^3/µL and 2.26 10^3/µL and 1.29 10^3/µL"},
      {"measurement": "Plt", "setting": "[1]; post-dosing bleed", "result": "418 10^3/µL and 319 10^3/µL and 265 10^3/µL and 238 10^3/µL and 242 10^3/µL and 283 10^3/µL and 400 10^3/µL and 311 10^3/µL and 246 10^3/µL and 364 10^3/µL and 390 10^3/µL and 478 10^3/µL and 296 10^3/µL and 291 10^3/µL and 431 10^3/µL and 302 10^3/µL and 342 10^3/µL and 357 10^3/µL"},
      {"measurement": "Rbc", "setting": "[1]; post-dosing bleed", "result": "5.1 10^6/µL and 6.04 10^6/µL and 4.96 10^6/µL and 5.62 10^6/µL and 5.26 10^6/µL and 6.1 10^6/µL and 5.44 10^6/µL and 5.74 10^6/µL and 5.55 10^6/µL and 5.53 10^6/µL and 5.75 10^6/µL and 5.14 10^6/µL and 5.39 10^6/µL and 6.11 10^6/µL and 5.61 10^6/µL and 5.03 10^6/µL and 5.57 10^6/µL and 5.49 10^6/µL"},
      {"measurement": "Rdw", "setting": "[1]; post-dosing bleed", "result": "12.7% and 12.2% and 13% and 12% and 13.5% and 11.7% and 12.6% and 12.5% and 13.3% and 11.9% and 12.9% and 12.4% and 12.3% and 11% and 12.8%"},
      {"measurement": "Wbc", "setting": "[1]; post-dosing bleed", "result": "5.48 10^3/µL and 7.33 10^3/µL and 3.67 10^3/µL and 5.82 10^3/µL and 4.76 10^3/µL and 4.2 10^3/µL and 3.7 10^3/µL and 7.52 10^3/µL and 4.16 10^3/µL and 5.51 10^3/µL and 3.69 10^3/µL and 6.15 10^3/µL and 8.14 10^3/µL and 5.08 10^3/µL and 4.41 10^3/µL and 7.03 10^3/µL and 5.73 10^3/µL and 4.11 10^3/µL and 6.68 10^3/µL"},
      {"measurement": "adverse events", "setting": "[2]; 19 treated macaques, 60 day treatment period", "result": "No adverse events"},
      {"measurement": "healthy and T. cruzi-seronegative infants produced", "setting": "[2]; female, rhesus monkey, in vivo, 2 years", "result": 13}
    ]}
  ]
}
